Assay results published in ChEMBL document CHEMBL1201862, “PubChem BioAssay data set” (2004).
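Five concentrations, 48 hours, 96-well plates. At the GI50, growth is halved.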 Activity calls are given as the source filed them. Cut-off read from the data, not from the text of the source: active = GI50 up to about 1.1 µM and inactive = higher.

How the values were obtained:
Experiment in all cases: NCI tumour cell line growth inhibition, 48 h
[1] = tested on: 786-0
[2] = tested on: A498
[3] = tested on: A549
[4] = tested on: ACHN
[5] = tested on: CAKI-1
[6] = tested on: CCRF-CEM
[7] = tested on: COLO 205
[8] = tested on: DMS-114
[9] = tested on: DMS-273
[10] = tested on: EKVX
[11] = tested on: HCC 2998
[12] = tested on: HCT-116
[13] = tested on: HL-60
[14] = tested on: HOP-18
[15] = tested on: HOP-62
[16] = tested on: HOP-92
[17] = tested on: HT-29
[18] = tested on: IGROV-1
[19] = tested on: K562
[20] = tested on: KM-20L2
[21] = tested on: KM12
[22] = tested on: LOX IMVI
[23] = tested on: M14
[24] = tested on: M19-MEL
[25] = tested on: MOLT-4
[26] = tested on: Malme-3M
[27] = tested on: NCI-H226
[28] = tested on: NCI-H23
[29] = tested on: NCI-H522
[30] = tested on: OVCAR-3
[31] = tested on: OVCAR-4
[32] = tested on: OVCAR-5
[33] = tested on: OVCAR-8
[34] = tested on: RXF 393
[35] = tested on: RXF 631
[36] = tested on: SF-268
[37] = tested on: SF-295
[38] = tested on: SF-539
[39] = tested on: SK-MEL-28
[40] = tested on: SK-MEL-2
[41] = tested on: SK-MEL-5
[42] = tested on: SK-OV-3
[43] = tested on: SN12C
[44] = tested on: SNB-19
[45] = tested on: SNB-75
[46] = tested on: SR
[47] = tested on: SW-620
[48] = tested on: TK-10
[49] = tested on: U-251
[50] = tested on: UACC-257
[51] = tested on: UACC-62
[52] = tested on: UO-31
[53] = tested on: XF498
[54] = tested on: DLD-1
[55] = tested on: DU-145
[56] = tested on: HCT-15
[57] = tested on: Hs-578T
[58] = tested on: LXFL 529
[59] = tested on: MCF7
[60] = tested on: MDA-MB-231
[61] = tested on: MDA-N
[62] = tested on: NCI-H460
[63] = tested on: NCI/ADR-RES
[64] = tested on: PC-3
[65] = tested on: RPMI-8226
[66] = tested on: SNB-78
[67] = tested on: T47D

CC(=O)OCc1c(C)c2ccccc2n1C(C)=O
GI50 [1]: > 100 µM (inactive)
GI50 [2]: 38.3 µM (inactive)
GI50 [3]: 53 µM (inactive)
GI50 [4]: 25.3 µM (inactive)
GI50 [5]: > 100 µM (inactive)
GI50 [6]: 18.1 µM (inactive)
GI50 [7]: 44.2 µM (inactive)
GI50 [8]: 22.6 µM (inactive)
GI50 [9]: 25.1 µM (inactive)
GI50 [10]: > 100 µM (inactive)
GI50 [11]: 95.3 µM (inactive)
GI50 [12]: 44.5 µM (inactive)
GI50 [13]: 23.9 µM (inactive)
GI50 [14]: 27.7 µM (inactive)
GI50 [15]: 63.1 µM (inactive)
GI50 [16]: 98.6 µM (inactive)
GI50 [17]: 59.2 µM (inactive)
GI50 [18]: 36.8 µM (inactive)
GI50 [19]: 23.7 µM (inactive)
GI50 [20]: 53 µM (inactive)
GI50 [21]: 40.5 µM (inactive)
GI50 [22]: 45 µM (inactive)
GI50 [23]: > 100 µM (inactive)
GI50 [24]: 53 µM (inactive)
GI50 [25]: 29.7 µM (inactive)
GI50 [26]: 25 µM (inactive)
GI50 [27]: 87.5 µM (inactive)
GI50 [28]: 55 µM (inactive)
GI50 [29]: 20 µM (inactive)
GI50 [30]: 26.7 µM (inactive)
GI50 [31]: 32.1 µM (inactive)
GI50 [32]: > 100 µM (inactive)
GI50 [33]: 49 µM (inactive)
GI50 [34]: 33 µM (inactive)
GI50 [35]: 25.2 µM (inactive)
GI50 [36]: 43.6 µM (inactive)
GI50 [37]: 56.9 µM (inactive)
GI50 [38]: 38.2 µM (inactive)
GI50 [39]: > 100 µM (inactive)
GI50 [40]: 21 µM (inactive)
GI50 [41]: 35.2 µM (inactive)
GI50 [42]: 81.3 µM (inactive)
GI50 [43]: 35.7 µM (inactive)
GI50 [44]: > 100 µM (inactive)
GI50 [45]: 82.6 µM (inactive)
GI50 [46]: 36.1 µM (inactive)
GI50 [47]: 47 µM (inactive)
GI50 [48]: 30.5 µM (inactive)
GI50 [49]: 36.3 µM (inactive)
GI50 [50]: 30.3 µM (inactive)
GI50 [51]: 36.3 µM (inactive)
GI50 [52]: > 100 µM (inactive)
GI50 [53]: 26.5 µM (inactive)

COC1C(O)C(C)OC(OC2C(Oc3cccc4c(O)c5c(=O)oc6ccc(C)c7c(=O)oc(c34)c5c67)OC(C)C3O[C@H](c4ccccc4)OC32)C1O (stereo partly specified)
GI50 [1]: 0.0521 µM (active)
GI50 [2]: 0.0731 µM (active)
GI50 [3]: 0.0286 µM (active)
GI50 [4]: 0.0378 µM (active)
GI50 [5]: 0.207 µM (active)
GI50 [54]: 0.0456 µM (active)
GI50 [8]: 0.288 µM (active)
GI50 [9]: 0.0206 µM (active)
GI50 [55]: 0.193 µM (active)
GI50 [10]: 1.24 µM (inactive)
GI50 [11]: 0.453 µM (active)
GI50 [56]: 0.168 µM
GI50 [13]: 0.098 µM (active)
GI50 [14]: 1.05 µM (active)
GI50 [15]: 0.0441 µM (active)
GI50 [16]: 1.23 µM (inactive)
GI50 [17]: 0.0877 µM (active)
GI50 [57]: 0.531 µM (active)
GI50 [18]: 0.0681 µM (active)
GI50 [20]: 0.055 µM (active)
GI50 [58]: 0.0678 µM (active)
GI50 [23]: 0.851 µM (active)
GI50 [24]: 0.156 µM (active)
GI50 [59]: 0.084 µM (active)
GI50 [60]: 0.845 µM (active)
GI50 [61]: 0.372 µM (active)
GI50 [26]: 0.845 µM (active)
GI50 [27]: 0.0682 µM (active)
GI50 [62]: 0.0195 µM (active)
GI50 [63]: 2.12 µM (inactive)
GI50 [30]: 0.195 µM (active)
GI50 [31]: 1.3 µM (inactive)
GI50 [32]: 1.48 µM (inactive)
GI50 [33]: 0.034 µM (active)
GI50 [64]: 0.361 µM (active)
GI50 [65]: 0.0796 µM (active)
GI50 [34]: 0.274 µM (active)
GI50 [35]: 0.0314 µM (active)
GI50 [36]: 0.135 µM (active)
GI50 [37]: 0.103 µM (active)
GI50 [38]: 0.0746 µM (active)
GI50 [39]: 0.319 µM (active)
GI50 [40]: 0.824 µM (active)
GI50 [41]: 0.131 µM (active)
GI50 [42]: 0.533 µM (active)
GI50 [43]: 0.0578 µM (active)
GI50 [44]: 0.13 µM (active)
GI50 [45]: 0.583 µM (active)
GI50 [66]: 0.875 µM (active)
GI50 [47]: 0.0631 µM (active)
GI50 [67]: 0.196 µM (active)
GI50 [48]: 1.06 µM (active)
GI50 [49]: 0.196 µM (active)
GI50 [51]: 0.14 µM (active)
GI50 [52]: 0.294 µM (active)

CO/C=C(\Br)c1ccc2c(c1)OCO2
GI50 [1]: > 100 µM (inactive)
GI50 [2]: > 100 µM (inactive)
GI50 [3]: > 100 µM (inactive)
GI50 [4]: > 100 µM (inactive)
GI50 [5]: > 100 µM (inactive)
GI50 [6]: > 100 µM (inactive)
GI50 [8]: > 100 µM (inactive)
GI50 [9]: > 100 µM (inactive)
GI50 [10]: > 100 µM (inactive)
GI50 [12]: > 100 µM (inactive)
GI50 [13]: > 100 µM (inactive)
GI50 [15]: > 100 µM (inactive)
GI50 [16]: > 100 µM (inactive)
GI50 [18]: > 100 µM (inactive)
GI50 [19]: > 100 µM (inactive)
GI50 [21]: > 100 µM (inactive)
GI50 [58]: > 100 µM (inactive)
GI50 [23]: > 100 µM (inactive)
GI50 [24]: > 100 µM (inactive)
GI50 [25]: 73.5 µM (inactive)
GI50 [26]: > 100 µM (inactive)
GI50 [27]: > 100 µM (inactive)
GI50 [28]: > 100 µM (inactive)
GI50 [29]: > 100 µM (inactive)
GI50 [30]: > 100 µM (inactive)
GI50 [31]: > 100 µM (inactive)
GI50 [32]: > 100 µM (inactive)
GI50 [33]: > 100 µM (inactive)
GI50 [34]: > 100 µM (inactive)
GI50 [35]: > 100 µM (inactive)
GI50 [36]: > 100 µM (inactive)
GI50 [37]: > 100 µM (inactive)
GI50 [38]: > 100 µM (inactive)
GI50 [39]: > 100 µM (inactive)
GI50 [40]: > 100 µM (inactive)
GI50 [42]: > 100 µM (inactive)
GI50 [43]: > 100 µM (inactive)
GI50 [44]: > 100 µM (inactive)
GI50 [45]: > 100 µM (inactive)
GI50 [66]: > 100 µM (inactive)
GI50 [46]: > 100 µM (inactive)
GI50 [47]: > 100 µM (inactive)
GI50 [48]: > 100 µM (inactive)
GI50 [49]: > 100 µM (inactive)
GI50 [50]: > 100 µM (inactive)
GI50 [51]: 64.9 µM (inactive)
GI50 [52]: > 100 µM (inactive)
GI50 [53]: > 100 µM (inactive)
